According to US20220281831A1, “FUSED-GLUTARIMIDE CRBN LIGANDS AND USES THEREOF” (Kymera Therapeutics, Inc., priority 2019, published 2022):

Assays:
[1] = biological target: His-tagged CRBN-DDB1 complex (Homo sapiens, UniProt Q96SW2); experiment: Time-Resolved Fluorescence Resonance Energy Transfer (TR-FRET / HTRF) CRBN binding assay, displacement of Cy5-labeled thalidomide; conditions: His-CRBN-DDB1, Cy5-thalidomide 8 nM, 1 hour room temperature
CRBN-DDB1 = CRBN-DDB1 (Homo sapiens, UniProt Q96SW2); experiment: Fluorescence Polarization (FP) CRBN binding assay, probe TM-493 (FAM-BB-100); conditions: CRBN-DDB1, TM-493 probe, 60 min room temperature
Chain of CRBN-DDB1 (Q96SW2 whole entry): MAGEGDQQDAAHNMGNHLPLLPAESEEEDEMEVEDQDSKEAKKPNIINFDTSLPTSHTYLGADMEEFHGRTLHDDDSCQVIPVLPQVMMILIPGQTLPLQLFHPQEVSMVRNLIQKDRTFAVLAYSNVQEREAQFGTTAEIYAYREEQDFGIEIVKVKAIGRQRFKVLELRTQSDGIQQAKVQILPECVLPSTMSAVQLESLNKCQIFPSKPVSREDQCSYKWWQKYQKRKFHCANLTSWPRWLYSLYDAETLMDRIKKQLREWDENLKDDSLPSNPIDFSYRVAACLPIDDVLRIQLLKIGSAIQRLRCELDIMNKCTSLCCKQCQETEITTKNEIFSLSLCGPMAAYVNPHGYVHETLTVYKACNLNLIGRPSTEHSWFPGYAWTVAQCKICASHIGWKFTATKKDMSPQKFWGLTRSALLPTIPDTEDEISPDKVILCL
Chain of CRBN-DDB1 (Q16531 whole entry partner): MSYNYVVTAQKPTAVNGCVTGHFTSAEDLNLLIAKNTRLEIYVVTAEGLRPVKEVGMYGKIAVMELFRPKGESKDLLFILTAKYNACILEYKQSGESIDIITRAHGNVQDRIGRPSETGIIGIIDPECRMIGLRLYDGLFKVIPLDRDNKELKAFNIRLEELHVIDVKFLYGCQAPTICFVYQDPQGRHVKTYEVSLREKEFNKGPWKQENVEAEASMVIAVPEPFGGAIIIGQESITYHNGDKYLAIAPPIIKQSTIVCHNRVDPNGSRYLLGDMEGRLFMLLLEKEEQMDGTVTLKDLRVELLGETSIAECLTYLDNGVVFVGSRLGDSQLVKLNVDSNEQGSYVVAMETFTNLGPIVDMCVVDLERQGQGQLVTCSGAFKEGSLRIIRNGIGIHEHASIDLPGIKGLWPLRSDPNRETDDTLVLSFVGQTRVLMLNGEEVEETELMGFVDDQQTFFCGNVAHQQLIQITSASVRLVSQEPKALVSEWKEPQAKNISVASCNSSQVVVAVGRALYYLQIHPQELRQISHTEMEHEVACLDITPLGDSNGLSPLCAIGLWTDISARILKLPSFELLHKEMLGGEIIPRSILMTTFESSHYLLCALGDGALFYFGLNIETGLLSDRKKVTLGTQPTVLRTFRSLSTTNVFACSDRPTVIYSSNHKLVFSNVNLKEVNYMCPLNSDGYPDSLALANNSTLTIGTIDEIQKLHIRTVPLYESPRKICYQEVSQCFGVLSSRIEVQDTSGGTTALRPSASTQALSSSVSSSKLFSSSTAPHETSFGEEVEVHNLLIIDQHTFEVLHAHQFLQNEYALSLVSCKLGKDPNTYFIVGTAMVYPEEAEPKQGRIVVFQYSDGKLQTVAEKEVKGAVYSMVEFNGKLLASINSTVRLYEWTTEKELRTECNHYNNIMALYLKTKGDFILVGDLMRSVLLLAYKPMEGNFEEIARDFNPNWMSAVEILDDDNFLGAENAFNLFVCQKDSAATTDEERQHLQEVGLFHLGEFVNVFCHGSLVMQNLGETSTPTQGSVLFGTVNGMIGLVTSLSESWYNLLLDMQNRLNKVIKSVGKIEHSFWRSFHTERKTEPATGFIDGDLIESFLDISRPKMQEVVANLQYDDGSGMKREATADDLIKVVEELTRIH
Description: Fluorescence Polarization (FP) Assay
Materials: PerkinElmer EnVision 2104 Multilabel Reader, PerkinElmer FITC FP dual emission Label 2100-8060, Corning 384-well microplate #4514, V-CMR-TM-493 (FAM-BB-100), and CRBN-DDB1-180605.
Methods: Dilution buffer (50 mM HEPES-Na pH 7.5, 100 mM NaCl, 2 mM DTT, and 0.005% Tween-20) and compound DMSO dilutions were prepared. 4× compound working solutions were made with 8% DMSO (4×) and 13.8 μL/well of dilution buffer was placed in a new 96-well plate and 1.2 μL/well of above compound DMSO dilutions were added to the wells. 40 nM (4×) TM-493 in dilution buffer was prepared from a 10 μM DMSO stock and 15 μL per well of the TM-493 working solution was transferred into the compound working solution. 160 nM (2×) CRBN-DDB1 working solution was prepared with Dilution Buffer and 10 μL/well were added into a 384-well plate. 10 μL per well of the TM-493/compound mixture were transferred into the 384-well plate. The “positive control” was sample without protein and compound in 2% DMSO. After incubation at room temperature for 60 min, data was collected and read on data on an EnVision with the following setting: Excitation Light (%): 100; Measurement Height: 9.4; G-Factor: 1; Detector Gain 1: 200; Detector Gain 2: 200; Flash Number: 100. Data was processed using GraphPad Prism 7.0
The compound numbers correspond to the compound numbers in Table 1.

Chain of His-tagged CRBN-DDB1 complex (Q96SW2 whole entry): as the sequence (Q96SW2 whole entry) above
Chain of His-tagged CRBN-DDB1 complex (Q16531 whole entry partner): as the sequence (Q16531 whole entry partner) above

Structure (SMILES)	IC50 [1]	IC50 (CRBN-DDB1)
Nc1ccc2c(c1)C(=O)NC(=O)C2 [Compound I-12]	< 10 µM	10 to 30 µM
Nc1ccccc1-c1ccc2c(c1)C(=O)NC(=O)C2 [Compound I-17, 7-(2-aminophenyl)-2,4-dihydroisoquinoline-1,3-dione]	> 100 µM	30 to 100 µM
COc1ccccc1-c1ccc2c(c1)C(=O)NC(=O)C2 [Compound I-18, 7-(2-Methoxyphenyl)-2,4-dihydroisoquinoline-1,3-dione]	> 100 µM	30 to 100 µM
O=C1Cc2ccc(O)cc2C(=O)N1 [Compound I-19, 7-hydroxy-2,4-dihydroisoquinoline-1,3-dione]	< 10 µM	> 100 µM
NC(=O)c1ccc2c(c1)C(=O)NC(=O)C2 [Compound I-20, 1,3-dioxo-2,4-dihydroisoquinoline-7-carboxamide]	30 to 100 µM	> 100 µM
CC(=O)Nc1ccc2c(c1)C(=O)NC(=O)C2 [Compound I-21]	30 to 100 µM	10 to 30 µM
Nc1cccc2c1C(=O)NC(=O)C2 [Compound I-22, 8-Amino-2,4-dihydroisoquinoline-1,3-dione]	> 100 µM	10 to 30 µM
O=C1Cc2cccc(O)c2C(=O)N1 [Compound I-23]	10 to 30 µM	30 to 100 µM
O=C1Cc2cccc(Oc3ccccc3)c2C(=O)N1 [Compound I-26, 8-phenoxy-2,4-dihydroisoquinoline-1,3-dione]	< 10 µM	< 10 µM
O=C1Cc2cccc(Nc3ccccc3)c2C(=O)N1 [Compound I-27, 8-(Phenylamino)-2,4-dihydroisoquinoline-1,3-dione]	30 to 100 µM	30 to 100 µM
O=C1NC(=O)c2c(Br)cccc21 [Compound I-29, 4-bromo-2H-isoindole-1,3-dione]	> 100 µM	> 100 µM
Cc1ccccc1-c1cccc2c1C(=O)NC2=O [Compound I-31, 4-(2-methylphenyl)-2H-isoindole-1,3-dione]	30 to 100 µM	> 100 µM
Cc1ncoc1-c1cccc2c1C(=O)NC2=O [Compound I-33, 4-(4-methyl-1,3-oxazol-5-yl)-2H-isoindole-1,3-dione]	> 100 µM	> 100 µM
CC(=O)Nc1cccc2c1C(=O)NC(=O)C2 [Compound I-42]	10 to 30 µM	30 to 100 µM
O=C1NC(=O)C(F)(F)c2cccc(Br)c21 [Compound I-49]	> 100 µM	> 100 µM
O=C1NC(=O)C(F)(F)c2cccc(C(=O)N3CCc4ccccc43)c21 [Compound I-50]	> 100 µM	> 100 µM
N#Cc1ccccc1-c1cccc2c1C(=O)NC(=O)C2 [Compound I-52, 2-(1,3-Dioxo-2,4-dihydroisoquinolin-8-yl)benzonitrile]	30 to 100 µM	30 to 100 µM
O=c1[nH]c(=O)c2cc(Br)ccc2o1 [Compound I-53, 6-Bromo-3H-1,3-benzoxazine-2,4-dione]	> 100 µM	> 100 µM

Structure (SMILES)	IC50 [1]	IC50 (CRBN-DDB1)
O=c1[nH]c(=O)c2c(Br)cccc2o1 [Compound I-54, 5-Bromo-3H-1,3-benzoxazine-2,4-dione]	> 100 µM	> 100 µM
O=C1NC(=O)C2(CC2)c2cccc(Br)c21 [Compound I-58, 8′-Bromo-2′H-spiro[cyclopropane-1,4′-isoquinoline]-1′,3′-dione]	> 100 µM	> 100 µM
O=C1Cc2cccc(NC(=O)c3ccccc3)c2C(=O)N1 [Compound I-62]	< 10 µM	30 to 100 µM
NCc1cccc2c1C(=O)NC(=O)C2 [Compound I-68]	10 to 30 µM	10 to 30 µM
Nc1cccc2c1C(=O)NC(=O)C2(F)F [Compound I-71, 8-Amino-4,4-difluoro-2H-isoquinoline-1,3-dione]	< 10 µM	< 10 µM
O=C1Cc2c(F)cccc2C(=O)N1 [Compound I-72, 5-Fluoro-2,4-dihydroisoquinoline-1,3-dione]	10 to 30 µM	> 100 µM
O=C1Cc2cc(F)ccc2C(=O)N1 [Compound I-73, 6-Fluoro-2,4-dihydroisoquinoline-1,3-dione]	10 to 30 µM	> 100 µM
O=C1Cc2ccc(F)cc2C(=O)N1 [Compound I-74, 7-Fluoro-2,4-dihydroisoquinoline-1,3-dione]	30 to 100 µM	30 to 100 µM
O=C1Cc2cccc(F)c2C(=O)N1 [Compound I-75, 8-Fluoro-2,4-dihydroisoquinoline-1,3-dione]	10 to 30 µM	30 to 100 µM
Nc1ccc2c(c1)CC(=O)NC2=O [Compound I-77]	10 to 30 µM	10 to 30 µM
Cc1cccc2c1CC(=O)NC2=O [Compound I-78]	10 to 30 µM	> 100 µM
Cc1ccc2c(c1)CC(=O)NC2=O [Compound I-79]	30 to 100 µM	> 100 µM
COc1cc(F)ccc1N1C[C@@H]2C(=O)NC(=O)[C@@H]2C1 [Compound I-124]	30 to 100 µM	> 100 µM
CCCOc1ccc(N2C[C@@H]3C(=O)NC(=O)[C@@H]3C2)cc1 [Compound I-132]	30 to 100 µM	> 100 µM
CCOC(=O)c1cccc(N2C[C@@H]3C(=O)NC(=O)[C@@H]3C2)c1 [Compound I-133]	10 to 30 µM	> 100 µM
O=C1NC(=O)[C@@H]2CN(c3ccc(Oc4ccccc4)cc3)C[C@H]12 [Compound I-151]	30 to 100 µM	> 100 µM
O=C1NC(=O)[C@@H]2CN(C3CCCC3)C[C@H]12 [Compound I-159]	> 100 µM	> 100 µM
Nc1ccc2c(c1)C1(CC(=O)NC1=O)NC2=O (stereo not shown) [Compound I-175]	> 100 µM	> 100 µM

The remaining lines, values ahead:

IC50 [1]	IC50 (CRBN-DDB1)	Structure (SMILES)
> 100 µM	> 100 µM	O=C1CC2(CCc3ccccc32)C(=O)N1 (stereo not shown) [Compound I-185]
30 to 100 µM	> 100 µM	O=C1CC2(Cc3ccccc3C2)C(=O)N1 [Compound I-186, 1,3-dihydrospiro[indene-2,3′-pyrrolidine]-2′,5′-dione]
10 to 30 µM	30 to 100 µM	O=C1Cc2cccc(N3CCCCC3=O)c2C(=O)N1 [Compound I-193]
10 to 30 µM	30 to 100 µM	O=C1Cc2cccc(-n3ccccc3=O)c2C(=O)N1 [Compound I-194]
> 100 µM	> 100 µM	O=C1C[C@]2(CCc3c([N+](=O)[O-])cccc32)C(=O)N1 [Compound I-196]
> 100 µM	> 100 µM	O=C1C[C@@]2(CCc3c([N+](=O)[O-])cccc32)C(=O)N1 [Compound I-197]
< 10 µM	10 to 30 µM	O=C1Cc2cccc(Oc3cccc(F)c3)c2C(=O)N1 [Compound I-198, 8-(3-Fluorophenoxy)-2,4-dihydroisoquinoline-1,3-dione]
< 10 µM	10 to 30 µM	Cc1cccc(Oc2cccc3c2C(=O)NC(=O)C3)c1 [Compound I-199, 8-(3-Methylphenoxy)-2,4-dihydroisoquinoline-1,3-dione]
< 10 µM	< 10 µM	O=C1Cc2cccc(Oc3ccccc3F)c2C(=O)N1 [Compound I-200, 8-(2-Fluorophenoxy)-2,4-dihydroisoquinoline-1,3-dione]
< 10 µM	< 10 µM	O=C1Cc2cccc(Oc3ccccc3Cl)c2C(=O)N1 [Compound I-202, 8-(2-Chlorophenoxy)-2,4-dihydroisoquinoline-1,3-dione]
< 10 µM	< 10 µM	Cc1cc2c(c(Oc3ccccc3)c1)C(=O)NC(=O)C2 [Compound I-203, 6-Methyl-8-phenoxy-2,4-dihydroisoquinoline-1,3-dione]
> 100 µM	> 100 µM	CC(C)(C)OC(=O)NCCCCCCCCCc1ccccc1Oc1cccc2c1C(=O)NC(=O)C2 [Compound I-218]
10 to 30 µM	30 to 100 µM	CC(C)(C)OC(=O)NCCCc1cccc(Oc2cccc3c2C(=O)NC(=O)C3)c1 [Compound I-220]
< 10 µM	> 100 µM	CC(C)(C)OC(=O)NCCCC#Cc1cccc(Oc2cccc3c2C(=O)NC(=O)C3)c1 [Compound I-221]
30 to 100 µM	30 to 100 µM	CC(C)(C)OC(=O)NCCCCCc1cccc(Oc2cccc3c2C(=O)NC(=O)C3)c1 [Compound I-222]
30 to 100 µM	30 to 100 µM	CC(C)(C)OC(=O)NCCCCCC#Cc1cccc(Oc2cccc3c2C(=O)NC(=O)C3)c1 [Compound I-223]
< 10 µM	> 100 µM	CC(C)(C)OC(=O)NCCCCCCCc1cccc(Oc2cccc3c2C(=O)NC(=O)C3)c1 [Compound I-224]
> 100 µM	> 100 µM	CC(C)(C)OC(=O)NCCCCCCCC#Cc1cccc(Oc2cccc3c2C(=O)NC(=O)C3)c1 [Compound I-225]
> 100 µM	> 100 µM	CC(C)(C)OC(=O)NCCCCCCCCCc1cccc(Oc2cccc3c2C(=O)NC(=O)C3)c1 [Compound I-226]
< 10 µM	> 100 µM	CC(C)(C)OC(=O)NCCCc1ccc(Oc2cccc3c2C(=O)NC(=O)C3)cc1 [Compound I-227]
